Test results from patent US20070032529A1, “Pyrazole compounds and their use as antidiabetes agents” (Japan Tobacco Inc., priority 2005, published 2007).
pIC50: −log10 of the molar value. Where two headings read alike, the source gives them in different places.

How the values were obtained:
[1] = tested on: db/db mice; test: Measuring blood plasma glucose concentration in db/db mice (hypoglycemic effect); format: in vivo; design: key: ++: compounds exhibiting statistically significant hypoglycemic effect at a dose of 10 mg/kg or less; +: compounds exhibiting not significant but obvious hypoglycemic effect at a dose of 10 mg/kg; details: db/db mice fasted 4 h, oral administration, plasma glucose 1 and 3 hours after administration, dose 10 mg/kg or less, Dunnett test vs solvent
Method: 2. Exemplary Test (2) Method for Measuring Blood Plasma Glucose Concentration
Using db/db mice representing an obesity type of diabetic model were used to examine the effect of compound (1) of the present invention on glucose concentrations in plasma. Plasma glucose concentrations of the db/db mice (9-18 weeks old) were measured, and the mice were divided into groups each of 5 or 8 mice such that there would be no difference in the average value of plasma glucose concentrations. After fasting for four hours, the example compound or the solvent (0.5% methylcellulose) was administered orally to the db/db mice, and plasma glucose concentrations were measured 1 and 3 hours after administration. The analysis of the hypoglycemic effect of the example compound was performed through a statistical test at every hour between the group receiving the solvent and the groups of example compound (Dunnett test).

[2] = target: T1, recombinant human liver glycogen phosphorylase (Homo sapiens, UniProt P06737); test: Measuring liver glycogen phosphorylase activity (forward reaction system, NADPH absorbance at 340 nm); format: biochemical; details: for inhibition at 0.1 µM: compound concentration 100 nmol (in parentheses)
T1 construct: made in house; host or cells: Sf9 insect cells (crude homogenate, diluted, used as the enzyme solution)
T1 sequence (P06737 1-847): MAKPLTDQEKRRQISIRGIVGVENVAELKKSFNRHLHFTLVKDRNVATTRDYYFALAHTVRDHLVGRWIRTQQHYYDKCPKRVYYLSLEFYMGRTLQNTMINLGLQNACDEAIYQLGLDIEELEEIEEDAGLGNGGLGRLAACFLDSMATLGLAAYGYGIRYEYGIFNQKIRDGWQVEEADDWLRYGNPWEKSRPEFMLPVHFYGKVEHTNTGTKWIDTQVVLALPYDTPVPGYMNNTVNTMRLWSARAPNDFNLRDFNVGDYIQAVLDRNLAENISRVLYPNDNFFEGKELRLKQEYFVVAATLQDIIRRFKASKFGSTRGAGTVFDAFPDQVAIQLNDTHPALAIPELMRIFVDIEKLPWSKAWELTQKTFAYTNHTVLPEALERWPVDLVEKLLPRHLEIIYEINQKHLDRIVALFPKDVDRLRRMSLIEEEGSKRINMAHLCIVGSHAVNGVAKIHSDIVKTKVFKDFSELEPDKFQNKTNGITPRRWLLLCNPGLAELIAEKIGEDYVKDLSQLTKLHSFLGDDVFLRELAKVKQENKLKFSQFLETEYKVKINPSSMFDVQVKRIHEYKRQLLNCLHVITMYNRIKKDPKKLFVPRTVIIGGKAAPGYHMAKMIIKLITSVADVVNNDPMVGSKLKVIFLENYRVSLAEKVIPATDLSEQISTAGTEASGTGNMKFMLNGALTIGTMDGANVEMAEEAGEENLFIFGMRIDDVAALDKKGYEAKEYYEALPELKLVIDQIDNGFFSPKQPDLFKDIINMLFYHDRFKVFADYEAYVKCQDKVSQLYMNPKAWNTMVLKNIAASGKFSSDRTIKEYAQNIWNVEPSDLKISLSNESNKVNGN
Method in brief: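 Sf9 homogenate expressing the enzyme, in pH 6.8 BES/EDTA, with glycogen and phosphate substrate plus glucose, coupled via phosphoglucomutase/G6PDH to NADPH formation. A340 change over 75 min at room temperature, blank-corrected; IC50 linearly interpolated between the two concentrations bracketing 50% inhibition versus 1% DMSO control.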

[3] = enzyme inhibitory activity with respect to liver glycogen phosphorylase, class symbols
[4] = compound concentration 300 nmol (in parentheses), read-out: inhibition rate (%) at a certain concentration
[5] = read-out: inhibition rate (%) at a certain concentration
[6] = human liver glycogen phosphorylase, class symbol

Row | SMILES | pIC50 [2, 3] | further results
1 | O=C(NCc1cnccn1)c1cc(NC(=O)c2cc(F)c(F)cc2Cl)[nH]n1 [Example 5-42] | – | vivo (hypoglycemic effect in db/db mice) [1]: +
2 | CCOCCCN(C(=O)c1cc(NC(=O)c2cc(F)c(F)cc2Cl)[nH]n1)C1CCCCC1 [Example 1-102] | > 7.00 | –
3 | CS(=O)(=O)Nc1ccc(CNC(=O)c2cc(NC(=O)c3cc(F)c(F)cc3Cl)[nH]n2)cc1 [Example 2-16] | > 7.00 | –
4 | COCCN(CCOC)C(=O)c1cc(NC(=O)c2cc(F)c(F)cc2Cl)[nH]n1 [Example 1-94] | – | inhibition at 0.3 µM [2, 4]: 36.5%
5 | O=C(Nc1cccc2cccnc12)c1cc(NC(=O)c2cc(F)c(F)cc2Cl)[nH]n1 [Example 1-146] | – | inhibition at 0.1 µM [2, 5]: 11.3%
6 | COC(=O)[C@H](NC(=O)c1cc(NC(=O)c2cc(F)c(F)cc2Cl)[nH]n1)c1ccccc1 [Example 3-14] | – | inhibition at 1 µM ([2]; compound concentration 1000 nmol (in parentheses), read-out: inhibition rate (%) at a certain concentration): 41.7%
7 | O=C(NCc1c(F)cccc1Cl)c1cc(NC(=O)c2cc(F)c(F)cc2Cl)[nH]n1 [Example 1-36] | > 7.00 | –
8 | O=C(NCc1cc(F)ccc1F)c1cc(NC(=O)c2cc(F)c(F)cc2Cl)[nH]n1 [Example 1-20] | > 7.00 | –
9 | N/C(=N\O)c1cc(CNC(=O)c2cc(NC(=O)c3cc(F)c(F)cc3Cl)[nH]n2)ccn1 [Example 6-49] | – | pIC50 [2, 6]: > 7.00
10 | Cc1ccc(Cl)cc1C(=O)Nc1cc(C(=O)NCc2ccccc2)n[nH]1 [Example 4-13] | – | inhibition at 0.3 µM [2, 4]: 38%
11 | CN(C(=O)c1cc(NC(=O)c2cc(F)c(F)cc2Cl)[nH]n1)c1ccc(C(=O)NS(C)(=O)=O)cc1 [Example 6-5] | – | pIC50 [2, 6]: > 7.00
12 | COc1ccc(Cl)cc1C(=O)Nc1cc(C(=O)NCc2ccccc2)n[nH]1 [Example 4-17] | – | inhibition at 0.3 µM [2, 4]: 1.1%
13 | O=C(N[C@H]1c2ccccc2C[C@H]1O)c1cc(NC(=O)c2cc(F)c(F)cc2Cl)[nH]n1 [Example 2-31] | – | inhibition at 0.1 µM [2, 5]: 5.5%
14 | O=C(NCc1cccc(F)c1)c1cc(NC(=O)c2cc(F)c(F)cc2Cl)[nH]n1 [Example 1-9] | > 7.00 | –
15 | O=C(NCc1cccnc1OCC(F)(F)F)c1cc(NC(=O)c2cc(F)c(F)cc2Cl)[nH]n1 [Example 1-32] | > 7.00 | –
16 | Cc1ccc(F)c(C(=O)Nc2cc(C(=O)NCc3ccccc3)n[nH]2)c1 [Example 4-19] | – | inhibition at 0.3 µM [2, 4]: 3.3%
17 | CCCCN(C(=O)c1cc(NC(=O)c2cc(F)c(F)cc2Cl)[nH]n1)C1CC[S+]([O-])CC1 (stereo not shown) [Example 1-115] | – | inhibition at 0.3 µM [2, 4]: 39.7%
18 | O=C(Nc1cc(C(=O)NCc2cccnc2)n[nH]1)c1ccccc1 [Example 7-8] | – | inhibition at 0.3 µM ([2]; figure in brackets (300), read-out: IC50 column: % value printed with (300)): 6.8%
19 | O=C(NCc1ccc(-c2csnn2)cc1)c1cc(NC(=O)c2cc(F)c(F)cc2Cl)[nH]n1 [Example 1-142] | > 7.00 | –
20 | CCC(CC)N(CCOC)C(=O)c1cc(NC(=O)c2cc(F)c(F)cc2Cl)[nH]n1 [Example 1-103] | – | inhibition at 0.3 µM [2, 4]: 21.6%
21 | O=C(Nc1cc(C(=O)N(CCCCO)Cc2ccccc2)n[nH]1)c1cc(F)c(F)cc1Cl [Example 1-86] | – | inhibition at 0.3 µM [2, 4]: 17%

Second part, led by results:

Row | pIC50 [2, 3] | SMILES | further results
22 | > 7.00 | Cc1nc(C)c(CNC(=O)c2cc(NC(=O)c3cc(F)c(Cl)cc3Cl)[nH]n2)o1 [Example 3-53] | –
23 | > 7.00 | O=C(O)COc1ccccc1CNC(=O)c1cc(NC(=O)c2cc(F)c(F)cc2Cl)[nH]n1 [Example 3-48] | –
24 | 6.52 to 7.00 | O=C(O)CCCN(C(=O)c1cc(NC(=O)c2cc(F)c(F)cc2Cl)[nH]n1)c1ccccc1 [Example 4-28] | –
25 | 6.52 to 7.00 | CCCCCN(C(=O)c1cc(NC(=O)c2cc(F)c(F)cc2Cl)[nH]n1)c1ccccc1 [Example 3-18] | –
26 | 6.52 to 7.00 | O=C(O)CN(C(=O)c1cc(NC(=O)c2cc(F)c(F)cc2Cl)[nH]n1)c1ccccc1 [Example 4-5] | –
27 | > 7.00 | O=C(NN1CCOCC1)c1ccc(CNC(=O)c2cc(NC(=O)c3cc(F)c(F)cc3Cl)[nH]n2)cc1 [Example 5-5] | –
28 | > 7.00 | O=C(NCc1ccccc1Cl)c1cc(NC(=O)c2cc(F)c(F)cc2Cl)[nH]n1 [Example 3-36] | –
